Tests used:
[1] = The drug is tested on Clostridium sporogenes strain: ATCC15579 for biotransformation. The drug concentrations were measured before and after a 12-h incubation by liquid-chromatography-coupled mass spectrometry (LC–MS); conditions: 2 µM
[2] = bacteroides intestinalis, 12 h, 2 µM
Description: The drug is tested on Bacteroides intestinalis strain: DSM17393 for biotransformation. The drug concentrations were measured before and after a 12-h incubation by liquid-chromatography-coupled mass spectrometry (LC–MS)

[3] = The drug is tested on Enterococcus faecalis strain: V583 for biotransformation. The drug concentrations were measured before and after a 12-h incubation by liquid-chromatography-coupled mass spectrometry (LC–MS); conditions: 2 µM
[4] = limosilactobacillus reuteri cf48-3a, 12 h, 2 µM
Description: The drug is tested on Lactobacillus reuteri CF48-3A strain: BEI HM-102 for biotransformation. The drug concentrations were measured before and after a 12-h incubation by liquid-chromatography-coupled mass spectrometry (LC–MS)

[5] = The drug is tested on Clostridium ramosum strain: DSM1402 for biotransformation. The drug concentrations were measured before and after a 12-h incubation by liquid-chromatography-coupled mass spectrometry (LC–MS); conditions: thomasclavelia ramosa, 2 µM
[6] = The drug is tested on Bacteroides xylanisolvens strain: DSM18836 for biotransformation. The drug concentrations were measured before and after a 12-h incubation by liquid-chromatography-coupled mass spectrometry (LC–MS); conditions: 2 µM
[7] = The drug is tested on Bacteroides caccae strain: ATCC43185 for biotransformation. The drug concentrations were measured before and after a 12-h incubation by liquid-chromatography-coupled mass spectrometry (LC–MS); conditions: 2 µM
[8] = The drug is tested on Bacteroides fragilis strain: ATCC43859 for biotransformation. The drug concentrations were measured before and after a 12-h incubation by liquid-chromatography-coupled mass spectrometry (LC–MS); conditions: 2 µM
[9] = bifidobacterium adolescentis, 12 h, 2 µM
Description: The drug is tested on Bifidobacterium adolescentis strain: ATCC 15703 for biotransformation. The drug concentrations were measured before and after a 12-h incubation by liquid-chromatography-coupled mass spectrometry (LC–MS)

[10] = The drug is tested on Collinsella intestinalis strain: DSM13280 for biotransformation. The drug concentrations were measured before and after a 12-h incubation by liquid-chromatography-coupled mass spectrometry (LC–MS); conditions: 2 µM
[11] = bacteroides eggerthii, 12 h, 2 µM
Description: The drug is tested on Bacteroides eggerthii strain: DSM20697 for biotransformation. The drug concentrations were measured before and after a 12-h incubation by liquid-chromatography-coupled mass spectrometry (LC–MS)

[12] = victivallis vadensis, 12 h, 2 µM
Description: The drug is tested on Victivallis vadensis strain: ATCC BAA-548 for biotransformation. The drug concentrations were measured before and after a 12-h incubation by liquid-chromatography-coupled mass spectrometry (LC–MS)

[13] = bacteroides thetaiotaomicron, 12 h, 2 µM
Description: The drug is tested on Bacteroides thetaiotaomicron strain: 3731 for biotransformation. The drug concentrations were measured before and after a 12-h incubation by liquid-chromatography-coupled mass spectrometry (LC–MS)

[14] = The drug is tested on Bacteroides coprophilus strain: DSM18228 for biotransformation. The drug concentrations were measured before and after a 12-h incubation by liquid-chromatography-coupled mass spectrometry (LC–MS); conditions: 2 µM
[15] = The drug is tested on Blautia luti strain: DSM14534 for biotransformation. The drug concentrations were measured before and after a 12-h incubation by liquid-chromatography-coupled mass spectrometry (LC–MS); type: ADME; set-up: dose 2 uM, timepoint 0 vs 12 hours; conditions: 2 µM
[16] = parabacteroides johnsonii, 12 h, 2 µM
Description: The drug is tested on Parabacteroides johnsonii strain: DSM18315 for biotransformation. The drug concentrations were measured before and after a 12-h incubation by liquid-chromatography-coupled mass spectrometry (LC–MS)

[17] = The drug is tested on Providencia rettgeri strain: DSM1131 for biotransformation. The drug concentrations were measured before and after a 12-h incubation by liquid-chromatography-coupled mass spectrometry (LC–MS); type: ADME; set-up: dose 2 uM, timepoint 0 vs 12 hours; conditions: 2 µM
[18] = bacteroides thetaiotaomicron, 12 h, 2 µM; remark: listed apart in the source
Description: The drug is tested on Bacteroides thetaiotaomicron strain: VPI-5482 for biotransformation. The drug concentrations were measured before and after a 12-h incubation by liquid-chromatography-coupled mass spectrometry (LC–MS)

[19] = The drug is tested on Clostridium scindens strain: ATCC35704 for biotransformation. The drug concentrations were measured before and after a 12-h incubation by liquid-chromatography-coupled mass spectrometry (LC–MS); conditions: 2 µM
[20] = The drug is tested on Parabacteroides merdae strain: ATCC43184 for biotransformation. The drug concentrations were measured before and after a 12-h incubation by liquid-chromatography-coupled mass spectrometry (LC–MS); conditions: 2 µM

SMILES | Bacterial Biotransformation [1] | Bacterial Biotransformation [2] | Bacterial Biotransformation [3] | Bacterial Biotransformation [4] | Bacterial Biotransformation [5] | Bacterial Biotransformation [6] | Bacterial Biotransformation [7] | Bacterial Biotransformation [8] | Bacterial Biotransformation [9] | Bacterial Biotransformation [10] | Bacterial Biotransformation [11] | Bacterial Biotransformation [12] | Bacterial Biotransformation [13] | Bacterial Biotransformation [14] | Bacterial Biotransformation [15] | Bacterial Biotransformation [16] | Bacterial Biotransformation [17] | Bacterial Biotransformation [18] | Bacterial Biotransformation [19] | Bacterial Biotransformation [20]
CC(C)(C)NCC(O)c1cc(Cl)c(N)c(Cl)c1 (stereo not given) [CLENBUTEROL] | Compound NOT metabolized | Compound NOT metabolized | Compound NOT metabolized | Compound NOT metabolized | Compound NOT metabolized | Compound NOT metabolized | Compound NOT metabolized | Compound NOT metabolized | Compound NOT metabolized | Compound NOT metabolized | Compound NOT metabolized | Compound NOT metabolized | Compound NOT metabolized | Compound NOT metabolized | Compound NOT metabolized | Compound NOT metabolized | Compound NOT metabolized | Compound NOT metabolized | Compound NOT metabolized | Compound NOT metabolized
COc1ccc2[nH]c([S+]([O-])Cc3ncc(C)c(OC)c3C)nc2n1 (stereo not given) [TENATOPRAZOLE] | Compound metabolized | Compound metabolized | Compound metabolized | Compound metabolized | Compound metabolized | Compound metabolized | Compound metabolized | Compound metabolized | Compound metabolized | Compound metabolized | Compound metabolized | Compound metabolized | Compound metabolized | Compound metabolized | Compound metabolized | Compound metabolized | Compound metabolized | Compound metabolized | Compound metabolized | Compound metabolized
O=C(O)c1cc(/N=N/c2ccc(S(=O)(=O)Nc3ccccn3)cc2)ccc1O [SULFASALAZINE] | Compound metabolized | Compound metabolized | Compound metabolized | Compound metabolized | Compound metabolized | Compound metabolized | Compound metabolized | Compound metabolized | Compound metabolized | Compound metabolized | Compound metabolized | Compound metabolized | Compound metabolized | Compound NOT metabolized | Compound metabolized | Compound metabolized | Compound NOT metabolized | Compound metabolized | Compound metabolized | Compound metabolized
CCOC(=O)C1=C(C)NC(C)=C(C(=O)OC)C1c1cccc([N+](=O)[O-])c1 (stereo not given) [NITRENDIPINE] | Compound metabolized | Compound metabolized | Compound metabolized | Compound metabolized | Compound metabolized | Compound metabolized | Compound metabolized | Compound metabolized | Compound metabolized | Compound metabolized | Compound metabolized | Compound metabolized | Compound metabolized | Compound NOT metabolized | Compound metabolized | Compound metabolized | Compound metabolized | Compound metabolized | Compound metabolized | Compound metabolized
CC[C@@H](CO)NC(=O)[C@@H]1C=C2c3cccc4c3c(cn4C)C[C@H]2N(C)C1.O=C(O)/C=C\C(=O)O [METHYSERGIDE MALEATE] | Compound metabolized | Compound metabolized | Compound metabolized | Compound metabolized | Compound metabolized | Compound metabolized | Compound metabolized | Compound NOT metabolized | Compound metabolized | Compound NOT metabolized | Compound metabolized | Compound metabolized | Compound metabolized | Compound metabolized | Compound metabolized | Compound metabolized | Compound metabolized | Compound metabolized | Compound metabolized | Compound metabolized
CNC(=C[N+](=O)[O-])NCCSCc1csc(CN(C)C)n1 [NIZATIDINE] | Compound NOT metabolized | Compound metabolized | Compound metabolized | Compound NOT metabolized | Compound metabolized | Compound metabolized | Compound NOT metabolized | Compound NOT metabolized | Compound metabolized | Compound metabolized | Compound metabolized | Compound NOT metabolized | Compound NOT metabolized | Compound NOT metabolized | Compound metabolized | Compound metabolized | Compound NOT metabolized | Compound NOT metabolized | Compound metabolized | Compound NOT metabolized
CCN(CC)CCOCCOC(=O)C1(c2ccccc2)CCCC1.O=C(O)CC(O)(CC(=O)O)C(=O)O [CARBETAPENTANE CITRATE] | Compound metabolized | Compound metabolized | Compound metabolized | Compound metabolized | Compound metabolized | Compound metabolized | Compound metabolized | Compound NOT metabolized | Compound metabolized | Compound metabolized | Compound metabolized | Compound metabolized | Compound metabolized | Compound metabolized | Compound metabolized | Compound metabolized | Compound metabolized | Compound metabolized | Compound metabolized | Compound metabolized
COc1ccnc(C[S+]([O-])c2nc3ccc(OC(F)F)cc3[nH]2)c1OC (stereo not given) [PANTOPRAZOLE] | Compound metabolized | Compound metabolized | Compound metabolized | Compound metabolized | Compound metabolized | Compound metabolized | Compound metabolized | Compound metabolized | Compound metabolized | Compound metabolized | Compound metabolized | Compound metabolized | Compound metabolized | Compound metabolized | Compound metabolized | Compound metabolized | Compound metabolized | Compound metabolized | Compound metabolized | Compound metabolized
